Where no end group is shown, it is not given here.
Assays:
[1] = target: T1, Hsp90α (Homo sapiens, UniProt P07900); type: binding; conditions: dot blot, 2 µg blotted on membrane, 20 µg recombinant Hsp90α at 4°C overnight, α-Hsp90α immunodetection
T1 construct: purchased Abcam
Method: (§1) Two µg of each peptide was blotted (dot blot) directly on PDV nitrocellulose membrane and blocked with ROTI®Block (Carl Roth, Germany). After washing, the membrane was then incubated with 20 μg of recombinant Hsp90α (Abcam)/Lpl1-his protein at 4°C overnight. In case of interaction studies with Hsp90α, α-Hsp90α (produced in mouse, Abcam) was used as the primary antibody and for interaction studies with Lpl1-his, Anti-6X His tag antibody (also produced in mouse, Sigma-Aldrich, Germany) was used. Alkaline phosphatase conjugated goat-α-mouse IgG (Sigma-Aldrich, Germany) served as the secondary antibody. Detection was done using BCIP®/NBT solution (Sigma, Germany). Lpl1-his was isolated and purified as described in our previous paper (Tribelli et al. [2020]).

[2] = target: T2, Lpl1 (Staphylococcus aureus, UniProt Q2FJK4); assay: Dot blot / immunoblot interaction with Lpl1-his; type: binding; conditions: 2 µg blotted, anti-6X His immunodetection
T2 construct: made in house
Method: as §1

[3] = tested on: HaCaT cells; assay: MTT cytotoxicity in HaCaT cells; type: cell-based, human; conditions: for toxicity to HaCaT cells at tested concentration and exposure time: concentrations used in invasion studies (Fig. S1)
Method: MTT (3-(4,5-dimethylthiazol-2-yl)-2,5-diphenyl tetrazolium bromide) assay was employed to analyze the cytotoxicity of peptides and geldanamycin to the cells. 5 × 10^5 cells were seeded in a 96 flat bottom well plate and incubated for 2.5 or 24 h at 37°C with 5% CO2. The cells were then treated with increasing concentration (0 to 200 µM) of peptides or geldanamycin for 24 h. After the incubation, 10 μl of the MTT labelling reagent is added to each well to attain a final concentration 0.5 mg/ml, followed by 4 h incubation. Metabolically active cells convert the yellow tetrazolium salt to purple formazan crystals, which were solubilized using the solubilization solution (DMSO) and measured for absorbance at λmax/λref–570/690 nm (Saising et al. [2018]).

[4] = tested on: S. aureus USA300; assay: Galleria mellonella larvae infection model, S. aureus USA300; type: in vivo
Method: Galleria mellonella larvae, purchased from Feeders & more GmbH, Germany, were sorted based on weight and used within one week. Ten larvae per group with weight average of 500 mg/larvae were injected with bacteria and/or peptides on its last proleg using a BD insulin syringe. The dosage used for the experiment were 60 mg/kg for peptides, 5 mg/kg of geldanamycin and 20 mg/kg for vancomycin. Each larva was injected with 10 µl of L15 (last left proleg) 1 h before administration of 10^6 cfu S. aureus (last right proleg). The larvae were maintained at 37°C and observed for mortality every day over the course of 5 days.

[5] = tested on: phagocytosis by primary human CD14+ monocytes; assay: Phagocytosis of S. aureus USA300 by CD14+ monocytes; type: cell-based; conditions: L15 20 µM, L13 30 µM, geldanamycin 5 µM, 60 min preincubation; MOI 30, 90 min; n = 4 donors; SEM
Method: Peripheral Blood Mononuclear cells (PBMCs) were isolated by density gradient centrifugation following the previous study (Nguyen et al. [2022]). From the pool of PBMCs, monocytes were isolated by positive selection with anti-human CD14 microbeads (Miltenyi Biotech, Bergisch-Gladbach, Germany) following a previously reported protocol (Nguyen et al. [2022]). The purity was analysed by flow cytometry on a BD Accuri C6 (BD Biosciences, Heidelberg, Germany) with anti-human CD14-FITC, CD45-PE and propidium iodide (BD Biosciences, Heidelberg, Germany) and ranged from 85% to 98%.
For the phagocytosis, 10^6 CD14^+ monocytes were seeded in 1 ml of medium (RPMI supplemented with L-Glutamine and 10% FCS) in a 12 well plate (Greiner, Germany). The cells were incubated with 20 µM of L15, 30 µM of L13, or 5 µM of Geldanamycin for 60 min at 37°C and 5% CO2 before addition of bacteria. For the phagocytosis assay, bacterial cells were resuspended in 100 µl RPMI medium at MOI of 30 and incubated with monocytes for 90 min. The cells were washed once with PBS and 0.5 ml of medium supplemented with 2.5 µg/ml of Lysostaphin was added for 90 min to remove the extracellular bacteria. Then, monocytes were washed twice with PBS and resuspended in 0.5 ml of milliQ dH2O. The cells were scraped, and the lysed solution was transferred into a new 1.5 ml Eppendorf tube for a 5 min sonication (frequency 80, power 100) at room temperature to prevent the bacterial cell clumping by using ultrasonic water bath Elmasonic P (Elma Schmidbauer Gmb, Singen, Germany). About 10 µl fractions of undiluted, 10^−1, 10^−2, and 10^−3 dilutions were inoculated on tryptic soy agar (TSA) plates and incubated overnight at 37°C. The numbers of internalized bacteria were determined based on the manual counting of bacterial colony forming units (cfu) recovered on the agar plates.

[6] = tested on: S. aureus USA300 infected PBMCs; assay: Cytokine release of S. aureus USA300 infected PBMCs (ELISA); type: cell-based, human; conditions: L15 20 µM, L13 30 µM, geldanamycin 5 µM; 20 h; n = 5; vs unstimulated infected PBMCs
[7] = tested on: Staphylococcus aureus; assay: Bacterial growth kinetics; type: cell-based; conditions: OD578 every 1 h for 24 h, 37°C, TSB
Method: Staphylococcus aureus precultured in TSB overnight were inoculated to OD∼0.01 into a 48 well plate and L15 and L13 were added to study the effect of peptides on bacterial growth using Varioskan LUX Multimode Microplate Reader. With this instrument, a kinetic measurement of OD578 nm was obtained every 1 h for a total of 24 h, at 37°C with continuous shaking.

[8] = tested on: Staphylococcus aureus; assay: Hemolysin activity on sheep blood agar; type: cell-based; conditions: impregnated discs on sheep blood agar, 37°C overnight
Method: About 6 mm Whatman empty Antibiotic Assay Discs were impregnated with L15 or L13 and allowed to dry. Once dried, the discs were placed on sheep blood agar plates, inoculated with S. aureus and incubated at 37°C overnight. The halo obtained was measured and compared.

[9] = tested on: total ATPase activity in HaCaT cells; assay: Total ATPase activity in HaCaT cells; type: cell-based, human; conditions: Fig. S4
[10] = Solubility in PBS; type: physicochemical; conditions: qualitative statement

T2 sequence (Q2FJK4 23-257): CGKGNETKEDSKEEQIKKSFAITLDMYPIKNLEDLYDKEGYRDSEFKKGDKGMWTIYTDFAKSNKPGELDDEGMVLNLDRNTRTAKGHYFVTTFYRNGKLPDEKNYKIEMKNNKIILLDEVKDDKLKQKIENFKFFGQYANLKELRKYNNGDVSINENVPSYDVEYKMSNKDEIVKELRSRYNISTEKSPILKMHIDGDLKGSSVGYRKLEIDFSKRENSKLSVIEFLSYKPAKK

Sequence	Interaction with Hsp90α [1]	direct interaction with Lpl1 [2]	percentage of viable cells, HaCaT, 1 µM ([3]; MTT, 24 h, 1 µM) [%]	percentage of viable cells, HaCaT, 200 µM ([3]; MTT, 24 h, 200 µM) [%]	toxicity to HaCaT cells at tested concentration and exposure time [3]	larvae surviving on day 5, S. aureus USA300 ([4]; peptides 60 mg/kg injected 1 h before 10^6 cfu, 37°C, 10 larvae per group, three biological replicates) [%]	decrease of phagocytosis of S. aureus into CD14+ monocytes [5]	IL-6 production of infected PBMCs [6]	effect on growth of S. aureus [7]	effect on hemolysis activity of S. aureus [8]	effect on total ATPase activity in HaCaT cells [9]	solubility in PBS [10]	reduction of lethality of S. aureus in the insect model ([4]; G. mellonella model)
GHYFVTTFY [L13]	Yes	interact directly	103.05 ± 10.06	83.79 ± 11.13	neither inhibit the viability of host cells	23	about 62.0 ± 6.80%	significantly increased	did not detect any effect on growth	nor was hemolysis activity markedly affected	could not detect any significant inhibition	poor solubility in PBS	
TAKGHYFVTTFYRNG [L15]	Yes	interact directly			neither inhibit the viability of host cells		about 22.6 ± 7.67%	significantly increased	did not detect any effect on growth	nor was hemolysis activity markedly affected	could not detect any significant inhibition	better soluble	about 30%

— paper PMC10117725, “From an Hsp90 - binding protein to a peptide drug” (microLife, 2022)
